Reference: ChEMBL document CHEMBL1201862, “PubChem BioAssay data set” (2004)
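All cell lines were grown in 96-well plates and treated with compound for 48 hours. Here, GI50 denotes the concentration required for 50% inhibition of growth.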 Activity calls are given as the source filed them. No stated cut-off is given here; in the data, active = GI50 up to about 1.1 µM and inactive = higher.

Legend:
Test in all cases: NCI-60 cell line screen, 48 h
786-0 = system: 786-0
A498 = system: A498
A549 = system: A549
ACHN = system: ACHN
CAKI-1 = system: CAKI-1
CCRF-CEM = system: CCRF-CEM
COLO 205 = system: COLO 205
DLD-1 = system: DLD-1
DMS-114 = system: DMS-114
DMS-273 = system: DMS-273
EKVX = system: EKVX
HCC 2998 = system: HCC 2998
HCT-116 = system: HCT-116
HCT-15 = system: HCT-15
HL-60 = system: HL-60
HOP-18 = system: HOP-18
HOP-62 = system: HOP-62
HOP-92 = system: HOP-92
HT-29 = system: HT-29
IGROV-1 = system: IGROV-1
K562 = system: K562
KM-20L2 = system: KM-20L2
KM12 = system: KM12
LOX IMVI = system: LOX IMVI
LXFL 529 = system: LXFL 529
M14 = system: M14
M19-MEL = system: M19-MEL
MOLT-4 = system: MOLT-4
Malme-3M = system: Malme-3M
NCI-H226 = system: NCI-H226
NCI-H23 = system: NCI-H23
NCI-H460 = system: NCI-H460
OVCAR-3 = system: OVCAR-3
OVCAR-4 = system: OVCAR-4
OVCAR-5 = system: OVCAR-5
OVCAR-8 = system: OVCAR-8
RPMI-8226 = system: RPMI-8226
RXF 393 = system: RXF 393
RXF 631 = system: RXF 631
SF-268 = system: SF-268
SF-295 = system: SF-295
SF-539 = system: SF-539
SK-MEL-28 = system: SK-MEL-28
SK-MEL-2 = system: SK-MEL-2
SK-MEL-5 = system: SK-MEL-5
SN12C = system: SN12C
SNB-75 = system: SNB-75
SNB-78 = system: SNB-78
SR = system: SR
SW-620 = system: SW-620
TK-10 = system: TK-10
U-251 = system: U-251
UACC-257 = system: UACC-257
UACC-62 = system: UACC-62
UO-31 = system: UO-31
XF498 = system: XF498
NCI-H522 = system: NCI-H522
SK-OV-3 = system: SK-OV-3
SNB-19 = system: SNB-19

## C/C(=N\NC(=S)Nc1ccc([N+](=O)[O-])cc1S(=O)(=O)O)c1ccccn1
786-0
  GI50: 59.8 µM (inactive)
A498
  GI50: 36.7 µM (inactive)
A549
  GI50: 37.7 µM (inactive)
ACHN
  GI50: 62.4 µM (inactive)
CAKI-1
  GI50: 52.8 µM (inactive)
CCRF-CEM
  GI50: 39.9 µM (inactive)
COLO 205
  GI50: 36.5 µM (inactive)
DLD-1
  GI50: 41.2 µM (inactive)
DMS-114
  GI50: 39.7 µM (inactive)
DMS-273
  GI50: 37 µM (inactive)
EKVX
  GI50: 37.9 µM (inactive)
HCC 2998
  GI50: 30.9 µM (inactive)
HCT-116
  GI50: 28.4 µM (inactive)
HCT-15
  GI50: 37.6 µM
HL-60
  GI50: 31.7 µM (inactive)
HOP-18
  GI50: 40.1 µM (inactive)
HOP-62
  GI50: 76.9 µM (inactive)
HOP-92
  GI50: 41.9 µM (inactive)
HT-29
  GI50: 34.6 µM (inactive)
IGROV-1
  GI50: 73.1 µM (inactive)
K562
  GI50: 41.1 µM (inactive)
KM-20L2
  GI50: 26.3 µM (inactive)
KM12
  GI50: 51.8 µM (inactive)
LOX IMVI
  GI50: 53.2 µM (inactive)
LXFL 529
  GI50: 61 µM (inactive)
M14
  GI50: 64 µM (inactive)
M19-MEL
  GI50: 43.8 µM (inactive)
MOLT-4
  GI50: 40.1 µM (inactive)
Malme-3M
  GI50: 95.9 µM (inactive)
NCI-H226
  GI50: 37.4 µM (inactive)
NCI-H23
  GI50: 69.3 µM (inactive)
NCI-H460
  GI50: 25.7 µM (inactive)
OVCAR-3
  GI50: 26.6 µM (inactive)
OVCAR-4
  GI50: 36.8 µM (inactive)
OVCAR-5
  GI50: 39.9 µM (inactive)
OVCAR-8
  GI50: 34.3 µM (inactive)
RPMI-8226
  GI50: 40 µM (inactive)
RXF 393
  GI50: 38.8 µM (inactive)
RXF 631
  GI50: > 100 µM (inactive)
SF-268
  GI50: 95.3 µM (inactive)
SF-295
  GI50: > 100 µM (inactive)
SF-539
  GI50: 46.3 µM (inactive)
SK-MEL-28
  GI50: > 100 µM (inactive)
SK-MEL-2
  GI50: 29.4 µM (inactive)
SK-MEL-5
  GI50: 57.8 µM (inactive)
SN12C
  GI50: 59 µM (inactive)
SNB-75
  GI50: 43 µM (inactive)
SNB-78
  GI50: > 100 µM (inactive)
SR
  GI50: 32.6 µM (inactive)
SW-620
  GI50: 26.5 µM (inactive)
TK-10
  GI50: 37.4 µM (inactive)
U-251
  GI50: 33.5 µM (inactive)
UACC-257
  GI50: > 100 µM (inactive)
UACC-62
  GI50: 73.8 µM (inactive)
UO-31
  GI50: 45.6 µM (inactive)
XF498
  GI50: 30 µM (inactive)

## Cc1ccccc1/N=C/c1ccc(N(CCC#N)S(=O)(=O)c2ccccc2)cc1
786-0
  GI50: > 100 µM (inactive)
A498
  GI50: > 100 µM (inactive)
A549
  GI50: > 100 µM (inactive)
ACHN
  GI50: > 100 µM (inactive)
CAKI-1
  GI50: > 100 µM (inactive)
CCRF-CEM
  GI50: > 100 µM (inactive)
COLO 205
  GI50: > 100 µM (inactive)
DLD-1
  GI50: > 100 µM (inactive)
DMS-114
  GI50: > 100 µM (inactive)
DMS-273
  GI50: > 100 µM (inactive)
EKVX
  GI50: > 100 µM (inactive)
HCC 2998
  GI50: > 100 µM (inactive)
HCT-116
  GI50: > 100 µM (inactive)
HCT-15
  GI50: > 100 µM
HL-60
  GI50: 32.4 µM (inactive)
HOP-18
  GI50: > 100 µM (inactive)
HOP-62
  GI50: > 100 µM (inactive)
HOP-92
  GI50: > 100 µM (inactive)
HT-29
  GI50: > 100 µM (inactive)
IGROV-1
  GI50: > 100 µM (inactive)
K562
  GI50: > 100 µM (inactive)
KM-20L2
  GI50: > 100 µM (inactive)
KM12
  GI50: > 100 µM (inactive)
LOX IMVI
  GI50: > 100 µM (inactive)
LXFL 529
  GI50: > 100 µM (inactive)
M14
  GI50: > 100 µM (inactive)
M19-MEL
  GI50: > 100 µM (inactive)
MOLT-4
  GI50: > 100 µM (inactive)
Malme-3M
  GI50: > 100 µM (inactive)
NCI-H226
  GI50: > 100 µM (inactive)
NCI-H23
  GI50: > 100 µM (inactive)
NCI-H460
  GI50: > 100 µM (inactive)
NCI-H522
  GI50: 70.1 µM (inactive)
OVCAR-3
  GI50: > 100 µM (inactive)
OVCAR-4
  GI50: > 100 µM (inactive)
OVCAR-5
  GI50: > 100 µM (inactive)
OVCAR-8
  GI50: > 100 µM (inactive)
RPMI-8226
  GI50: > 100 µM (inactive)
RXF 393
  GI50: > 100 µM (inactive)
RXF 631
  GI50: > 100 µM (inactive)
SF-268
  GI50: > 100 µM (inactive)
SF-295
  GI50: > 100 µM (inactive)
SF-539
  GI50: > 100 µM (inactive)
SK-MEL-28
  GI50: > 100 µM (inactive)
SK-MEL-2
  GI50: > 100 µM (inactive)
SK-MEL-5
  GI50: > 100 µM (inactive)
SK-OV-3
  GI50: > 100 µM (inactive)
SN12C
  GI50: > 100 µM (inactive)
SNB-19
  GI50: > 100 µM (inactive)
SNB-75
  GI50: > 100 µM (inactive)
SNB-78
  GI50: > 100 µM (inactive)
SR
  GI50: > 100 µM (inactive)
SW-620
  GI50: > 100 µM (inactive)
TK-10
  GI50: > 100 µM (inactive)
U-251
  GI50: > 100 µM (inactive)
UACC-257
  GI50: > 100 µM (inactive)
UACC-62
  GI50: > 100 µM (inactive)
UO-31
  GI50: > 100 µM (inactive)
XF498
  GI50: > 100 µM (inactive)
